Tests used:
Format in all cases: in vivo
[1] = tested on: Euschistus servus; test: Tedders trap field capture of Euschistus servus, pheromone with vs without geraniol synergist; conditions: 160 mg geraniol + 200 mg methyl (2E,4Z)-decadienoate vs pheromone alone
Procedure: An experiment was carried out near Starkville, Oktibbeha County in Mississippi to study the response of Euschistus servus to a pheromone synergist. Geraniol was used as a synergist with methyl (2E,4Z)-decadienoate, a pheromone for Euschistus servus. Tedders traps were used in the experiment. Each treatment trap was baited with 160 mg geraniol and 200 mg methyl (2E,4Z)-decadienoate and each control trap was baited with 200 mg methyl (2E,4Z)-decadienoate. The control trap contained no geraniol or any other synergist. The trapped adult insects of Euschistus servos were collected on a daily basis and their total numbers were counted. Statistical analysis was done using the Least Squares means separation from the SAS GLM procedure.

[2] = tested on: Euschistus tristigmus; test: Tedders trap field capture of Euschistus tristigmus, pheromone with vs without geraniol synergist; conditions: soybean field; 160 mg geraniol + 200 mg methyl (2E,4Z)-decadienoate vs 200 mg methyl (2E,4Z)-decadienoate alone; Pr>t 0.04
Procedure: An experiment was carried out near Starkville, Oktibbeha County in Mississippi to study the response of Euschistus tristigmus in a crop field to a pheromone synergist. The crop field was a soybean field bordered on two sides by woods. Geraniol was used as a synergist with methyl (2E,4Z)-decadienoate, a pheromone for Euschistus tristigmus. Tedders traps were used in the experiment. Each trap was baited with 160 mg geraniol and 200 mg methyl (2E,4Z)-decadienoate and each control trap was baited with 200 mg methyl (2E,4Z)-decadienoate. The control trap contained no geraniol or other synergists. The trapped adult insects of Euschistus tristigmus were collected on a daily basis and the total number of trapped insects was counted. Statistical analysis was done using the Least Squares means separation from the SAS GLM procedure.

[3] = tested on: Euschistus species; test: Tedders trap field capture of Euschistus species, pheromone with vs without geraniol synergist; conditions: soybean field, Monticello, Ark.; 160 mg geraniol + 200 mg methyl (2E,4Z)-decadienoate vs pheromone alone; Pr>t 0.09
Procedure: An experiment was carried out in Monticello, Ark. to study the response of Euschistus species in a soybean field to a pheromone synergist. Geraniol was used as a synergist to methyl (2E,4Z)-decadienoate, which is a pheromone for both Euschistus species. […] traps were used in the experiment. Each treatment trap was baited with 160 mg geraniol and 200 mg methyl (2E,4Z)-decadienoate and each control trap was baited with 200 mg methyl (2E,4Z)-decadienoate. The control traps contained no geraniol or any other synergist. The trapped adult insects of Euschistus species were collected on a daily basis and their total numbers were counted. Statistical analysis was done using the Least Squares means separation from the SAS GLM procedure.

SMILES: CC(C)=CCC/C(C)=C/CO [geraniol, E-(3,7)-Dimethyl-2,6-octadien-1-ol]
- increase in the number of captured bugs ([1]; crepe myrtle field, Pr>t 0.51): ~72%
- increase in the number of captured bugs ([1]; field of mixed crops of plum and okra, Pr>t 0.02): ~92%
- increase in the number of captured bugs ([1]; new-peach field, Pr>t 0.05): ~251%
- increase in the number of captured bugs ([1]; old-peach field, Pr>t 0.02): ~122%
- increase in the number of captured bugs ([1]; soybean field, Pr>t 0.61): ~14%
- increase in the number of captured Euchistus tristigmus [2]: ~75%
- increase in the number of captured bugs [3]: ~269%
